{
  "source": "PubChem BioAssay AID250",
  "about": "(DTP/NCI, 2004)",
  "test_system": "BDF1 mice, L1210 leukemia sc, survival T/C",
  "assay": "NCI In Vivo Anticancer Drug Screen. Data for tumor model L1210 Leukemia (subcutaneous) in B6D2F1 (BDF1) mice",
  "conditions": "endpoint: median survival time, higher = longer survival",
  "how_it_was_run": "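Tumors were transplanted into mice, the animals were treated with compound, survival or tumor size was then measured, and treated values were divided by vehicle-control values.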",
  "note": "Several values for one entry are separate records, joined by “and”; a condition that tells them apart may be missing. Equal values may be shown once. Inconclusive results and toxic doses are left out.",
  "data": [
    {"smiles": "O=NN(CCCl)C(=O)NC1CCCCC1", "values": [
      {"measurement": "T/C", "setting": "dose: 2.5 mg/kg/injection, schedule: Q01DX009 (sc), vehicle: other", "result": "123 % of control"},
      {"measurement": "T/C", "setting": "dose: 3.0 mg/kg/injection, schedule: Q01DX Z (sc), vehicle: carboxymethylcellulose (CMC)", "result": "110 % of control"},
      {"measurement": "T/C", "setting": "dose: 5.0 mg/kg/injection, schedule: Q01DX009 (sc), vehicle: other", "result": "158 % of control"},
      {"measurement": "T/C", "setting": "dose: 5.0 mg/kg/injection, schedule: Q01DX Z (oral), vehicle: carboxymethylcellulose (CMC)", "result": "221 % of control"},
      {"measurement": "T/C", "setting": "dose: 5.0 mg/kg/injection, schedule: Q01DX Z (sc), vehicle: carboxymethylcellulose (CMC)", "result": "120 % of control"},
      {"measurement": "T/C", "setting": "dose: 8.0 mg/kg/injection, schedule: Q01DX009 (ip), vehicle: other", "result": "152 % of control"},
      {"measurement": "T/C", "setting": "dose: 8.4 mg/kg/injection, schedule: Q01DX Z (oral), vehicle: carboxymethylcellulose (CMC)", "result": "447 % of control"},
      {"measurement": "T/C", "setting": "dose: 8.4 mg/kg/injection, schedule: Q01DX Z (sc), vehicle: carboxymethylcellulose (CMC)", "result": "315 % of control and 421 % of control"},
      {"measurement": "T/C", "setting": "dose: 8.4 mg/kg/injection, schedule: Q07DX Z (sc), vehicle: carboxymethylcellulose (CMC)", "result": "100 % of control"},
      {"measurement": "T/C", "setting": "dose: 10.0 mg/kg/injection, schedule: Q01DX009 (sc), vehicle: other", "result": "160 % of control"},
      {"measurement": "T/C", "setting": "dose: 14.0 mg/kg/injection, schedule: Q01DX001 (sc), vehicle: carboxymethylcellulose (CMC)", "result": "120 % of control"},
      {"measurement": "T/C", "setting": "dose: 14.0 mg/kg/injection, schedule: Q01DX Z (oral), vehicle: carboxymethylcellulose (CMC)", "result": "410 % of control"},
      {"measurement": "T/C", "setting": "dose: 14.0 mg/kg/injection, schedule: Q01DX Z (sc), vehicle: carboxymethylcellulose (CMC)", "result": "400 % of control and 560 % of control"},
      {"measurement": "T/C", "setting": "dose: 14.0 mg/kg/injection, schedule: Q07DX Z (sc), vehicle: carboxymethylcellulose (CMC)", "result": "165 % of control"},
      {"measurement": "T/C", "setting": "dose: 20.0 mg/kg/injection, schedule: Q01DX009 (sc), vehicle: other", "result": "163 % of control"},
      {"measurement": "T/C", "setting": "dose: 23.0 mg/kg/injection, schedule: Q01DX001 (sc), vehicle: carboxymethylcellulose (CMC)", "result": "150 % of control"},
      {"measurement": "T/C", "setting": "dose: 23.0 mg/kg/injection, schedule: Q01DX Z (oral), vehicle: carboxymethylcellulose (CMC)", "result": "215 % of control"},
      {"measurement": "T/C", "setting": "dose: 23.0 mg/kg/injection, schedule: Q01DX Z (sc), vehicle: carboxymethylcellulose (CMC)", "result": "265 % of control and 273 % of control"},
      {"measurement": "T/C", "setting": "dose: 23.0 mg/kg/injection, schedule: Q07DX Z (sc), vehicle: carboxymethylcellulose (CMC)", "result": "170 % of control"},
      {"measurement": "T/C", "setting": "dose: 32.0 mg/kg/injection, schedule: Q01DX009 (ip), vehicle: other", "result": "120 % of control"},
      {"measurement": "T/C", "setting": "dose: 39.0 mg/kg/injection, schedule: Q01DX001 (sc), vehicle: carboxymethylcellulose (CMC)", "result": "295 % of control"},
      {"measurement": "T/C", "setting": "dose: 39.0 mg/kg/injection, schedule: Q01DX Z (oral), vehicle: carboxymethylcellulose (CMC)", "result": "157 % of control"},
      {"measurement": "T/C", "setting": "dose: 39.0 mg/kg/injection, schedule: Q07DX Z (sc), vehicle: carboxymethylcellulose (CMC)", "result": "750 % of control"},
      {"measurement": "T/C", "setting": "dose: 65.0 mg/kg/injection, schedule: Q01DX001 (sc), vehicle: carboxymethylcellulose (CMC)", "result": "355 % of control"},
      {"measurement": "T/C", "setting": "dose: 65.0 mg/kg/injection, schedule: Q07DX Z (sc), vehicle: carboxymethylcellulose (CMC)", "result": "330 % of control"},
      {"measurement": "T/C", "setting": "dose: 108.0 mg/kg/injection, schedule: Q01DX001 (sc), vehicle: carboxymethylcellulose (CMC)", "result": "750 % of control"}
    ]},
    {"smiles": "CC(C)CN(N)C(N)=O", "values": [
      {"measurement": "T/C", "setting": "dose: 78.0 mg/kg/injection, schedule: Q01DX Z (sc), vehicle: saline", "result": "100 % of control"},
      {"measurement": "T/C", "setting": "dose: 130.0 mg/kg/injection, schedule: Q01DX Z (sc), vehicle: saline", "result": "100 % of control"},
      {"measurement": "T/C", "setting": "dose: 216.0 mg/kg/injection, schedule: Q01DX Z (sc), vehicle: saline", "result": "100 % of control"},
      {"measurement": "T/C", "setting": "dose: 360.0 mg/kg/injection, schedule: Q01DX Z (sc), vehicle: saline", "result": "111 % of control"},
      {"measurement": "T/C", "setting": "dose: 600.0 mg/kg/injection, schedule: Q01DX Z (sc), vehicle: saline", "result": "111 % of control"}
    ]},
    {"smiles": "OCC1OC(n2cnc3c(Cl)ncnc32)C(O)C1O", "note": "(configuration not stated)", "values": [
      {"measurement": "T/C", "setting": "dose: 39.0 mg/kg/injection, schedule: Q01DX Z (sc), vehicle: methylcellulose (MC)", "result": "100 % of control"},
      {"measurement": "T/C", "setting": "dose: 65.0 mg/kg/injection, schedule: Q01DX Z (sc), vehicle: methylcellulose (MC)", "result": "100 % of control"},
      {"measurement": "T/C", "setting": "dose: 108.0 mg/kg/injection, schedule: Q01DX Z (sc), vehicle: methylcellulose (MC)", "result": "100 % of control"},
      {"measurement": "T/C", "setting": "dose: 180.0 mg/kg/injection, schedule: Q01DX Z (sc), vehicle: methylcellulose (MC)", "result": "100 % of control"},
      {"measurement": "T/C", "setting": "dose: 300.0 mg/kg/injection, schedule: Q01DX Z (sc), vehicle: methylcellulose (MC)", "result": "95 % of control and 100 % of control"},
      {"measurement": "T/C", "setting": "dose: 500.0 mg/kg/injection, schedule: Q01DX Z (sc), vehicle: methylcellulose (MC)", "result": "94 % of control and 105 % of control"},
      {"measurement": "T/C", "setting": "dose: 833.0 mg/kg/injection, schedule: Q01DX Z (sc), vehicle: methylcellulose (MC)", "result": "105 % of control"}
    ]},
    {"smiles": "CSc1ncnc2c1ncn2C1OC(CO)C(O)C1O", "note": "(configuration not stated)", "values": [
      {"measurement": "T/C", "setting": "dose: 5.0 mg/kg/injection, schedule: Q#A X Z (sc), vehicle: water", "result": "100 % of control"},
      {"measurement": "T/C", "setting": "dose: 8.4 mg/kg/injection, schedule: Q#A X Z (sc), vehicle: water", "result": "100 % of control"},
      {"measurement": "T/C", "setting": "dose: 14.0 mg/kg/injection, schedule: Q01DX Z (sc), vehicle: water", "result": "100 % of control"},
      {"measurement": "T/C", "setting": "dose: 14.0 mg/kg/injection, schedule: Q#A X Z (sc), vehicle: water", "result": "105 % of control"},
      {"measurement": "T/C", "setting": "dose: 23.0 mg/kg/injection, schedule: Q01DX Z (sc), vehicle: water", "result": "100 % of control and 105 % of control"},
      {"measurement": "T/C", "setting": "dose: 23.0 mg/kg/injection, schedule: Q02DX Z (sc), vehicle: water", "result": "100 % of control"},
      {"measurement": "T/C", "setting": "dose: 23.0 mg/kg/injection, schedule: Q#A X Z (sc), vehicle: water", "result": "111 % of control"},
      {"measurement": "T/C", "setting": "dose: 39.0 mg/kg/injection, schedule: Q01DX Z (sc), vehicle: water", "result": "111 % of control"},
      {"measurement": "T/C", "setting": "dose: 39.0 mg/kg/injection, schedule: Q02DX Z (sc), vehicle: water", "result": "105 % of control"},
      {"measurement": "T/C", "setting": "dose: 39.0 mg/kg/injection, schedule: Q## X Z (sc), vehicle: water", "result": "111 % of control"},
      {"measurement": "T/C", "setting": "dose: 39.0 mg/kg/injection, schedule: Q#A X Z (sc), vehicle: water", "result": "111 % of control"},
      {"measurement": "T/C", "setting": "dose: 65.0 mg/kg/injection, schedule: Q01DX001 (sc), vehicle: water", "result": "100 % of control"},
      {"measurement": "T/C", "setting": "dose: 65.0 mg/kg/injection, schedule: Q01DX Z (sc), vehicle: water", "result": "111 % of control"},
      {"measurement": "T/C", "setting": "dose: 65.0 mg/kg/injection, schedule: Q02DX Z (sc), vehicle: water", "result": "100 % of control"},
      {"measurement": "T/C", "setting": "dose: 65.0 mg/kg/injection, schedule: Q## X Z (sc), vehicle: water", "result": "105 % of control"},
      {"measurement": "T/C", "setting": "dose: 108.0 mg/kg/injection, schedule: Q01DX001 (sc), vehicle: water", "result": "111 % of control"},
      {"measurement": "T/C", "setting": "dose: 108.0 mg/kg/injection, schedule: Q01DX Z (sc), vehicle: water", "result": "122 % of control"},
      {"measurement": "T/C", "setting": "dose: 108.0 mg/kg/injection, schedule: Q02DX Z (sc), vehicle: water", "result": "111 % of control"},
      {"measurement": "T/C", "setting": "dose: 108.0 mg/kg/injection, schedule: Q## X Z (sc), vehicle: water", "result": "111 % of control"},
      {"measurement": "T/C", "setting": "dose: 180.0 mg/kg/injection, schedule: Q01DX001 (sc), vehicle: water", "result": "122 % of control"},
      {"measurement": "T/C", "setting": "dose: 180.0 mg/kg/injection, schedule: Q02DX Z (sc), vehicle: water", "result": "105 % of control"},
      {"measurement": "T/C", "setting": "dose: 180.0 mg/kg/injection, schedule: Q## X Z (sc), vehicle: water", "result": "116 % of control"},
      {"measurement": "T/C", "setting": "dose: 300.0 mg/kg/injection, schedule: Q01DX001 (sc), vehicle: water", "result": "122 % of control"},
      {"measurement": "T/C", "setting": "dose: 300.0 mg/kg/injection, schedule: Q## X Z (sc), vehicle: water", "result": "122 % of control"}
    ]},
    {"smiles": "COc1cc2cc3c4cc(OC)c(OC)cc4cc[n+]3c(C)c2cc1OC", "values": [
      {"measurement": "T/C", "setting": "dose: 100.0 mg/kg/injection, schedule: Q01DX009 (sc), vehicle: saline", "result": "97 % of control and 100 % of control"},
      {"measurement": "T/C", "setting": "dose: 200.0 mg/kg/injection, schedule: Q01DX009 (sc), vehicle: saline", "result": "97 % of control and 100 % of control"},
      {"measurement": "T/C", "setting": "dose: 400.0 mg/kg/injection, schedule: Q01DX009 (sc), vehicle: saline", "result": "99 % of control and 100 % of control"},
      {"measurement": "T/C", "setting": "dose: 800.0 mg/kg/injection, schedule: Q01DX009 (sc), vehicle: saline", "result": "100 % of control and 101 % of control"},
      {"measurement": "T/C", "setting": "dose: 1600.0 mg/kg/injection, schedule: Q01DX009 (sc), vehicle: saline", "result": "97 % of control and 100 % of control"}
    ]}
  ]
}
